Earlier results on two compounds are cited in EP1147779A1, “A method for rendering ursodeoxycholic acid in soluble form pharmaceutical compositions” (BIOPROGRESS S.p.A., priority 2000, dated 2001).

The conditions of data set [1]: ursodeoxycholic acid as such; background statement.

Turning to `C[C@H](CCC(=O)O)[C@H]1CC[C@H]2[C@@H]3[C@@H](O)C[C@@H]4C[C@H](O)CC[C@]4(C)[C@H]3CC[C@]12C` [Ursodeoxycholic acid], the solubility entry in data set [1] is “practically insoluble”.
Consider β-cyclodextrin, for which the toxicity entry (general statement, allowed by FAO/WHO as food additive) is listed as “no toxicity”. Moreover, for the setting “oral administration to humans”, the “passage of the intestinal mucosa / presence in plasma and urine” value is “does not overcome the barrier of the intestinal mucosa and is not found either in plasma or in urine”.
